Test results from ChEMBL document CHEMBL5653631, “A Potent and Selective ULK1 Inhibitor Suppresses Autophagy and Sensitizes Cancer Cells to Nutrient Stress” (iScience, 2018).
Each block holds one compound with its values, some of them ahead of it.

What was measured:
[1] = target: Ephrin type-A receptor 4 (Homo sapiens) (UniProt P54764); assay: Inhibition of human recombinant EphA4 at 500 nM related to control ULK1
[2] = target: Cyclin-dependent kinase 18 (Homo sapiens) (UniProt Q07002); assay: Inhibition of human recombinant PCTAIRE3 at 500 nM in presence of ATP by radiometric assay relative to control
Cyclin-dependent kinase 18 (Homo sapiens), sequence (Q07002 whole entry): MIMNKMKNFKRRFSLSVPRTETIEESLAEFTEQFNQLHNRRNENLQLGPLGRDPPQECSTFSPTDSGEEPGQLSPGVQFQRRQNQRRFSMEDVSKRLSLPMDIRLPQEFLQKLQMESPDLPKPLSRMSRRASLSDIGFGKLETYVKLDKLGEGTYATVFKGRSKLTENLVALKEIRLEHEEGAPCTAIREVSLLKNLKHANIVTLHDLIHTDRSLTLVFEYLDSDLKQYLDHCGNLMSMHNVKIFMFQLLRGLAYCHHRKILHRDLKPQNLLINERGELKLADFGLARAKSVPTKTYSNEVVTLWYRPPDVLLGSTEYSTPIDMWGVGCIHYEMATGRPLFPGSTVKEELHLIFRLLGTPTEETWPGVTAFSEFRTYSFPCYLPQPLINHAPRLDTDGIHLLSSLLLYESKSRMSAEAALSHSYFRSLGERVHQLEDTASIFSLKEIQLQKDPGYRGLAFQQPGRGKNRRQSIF

[3] = target: Tau-tubulin kinase 1 (Homo sapiens) (UniProt Q5TCY1); assay: Inhibition of human recombinant TTBK1 at 500 nM in presence of ATP by radiometric assay relative to control
Tau-tubulin kinase 1 (Homo sapiens), sequence (Q5TCY1 whole entry): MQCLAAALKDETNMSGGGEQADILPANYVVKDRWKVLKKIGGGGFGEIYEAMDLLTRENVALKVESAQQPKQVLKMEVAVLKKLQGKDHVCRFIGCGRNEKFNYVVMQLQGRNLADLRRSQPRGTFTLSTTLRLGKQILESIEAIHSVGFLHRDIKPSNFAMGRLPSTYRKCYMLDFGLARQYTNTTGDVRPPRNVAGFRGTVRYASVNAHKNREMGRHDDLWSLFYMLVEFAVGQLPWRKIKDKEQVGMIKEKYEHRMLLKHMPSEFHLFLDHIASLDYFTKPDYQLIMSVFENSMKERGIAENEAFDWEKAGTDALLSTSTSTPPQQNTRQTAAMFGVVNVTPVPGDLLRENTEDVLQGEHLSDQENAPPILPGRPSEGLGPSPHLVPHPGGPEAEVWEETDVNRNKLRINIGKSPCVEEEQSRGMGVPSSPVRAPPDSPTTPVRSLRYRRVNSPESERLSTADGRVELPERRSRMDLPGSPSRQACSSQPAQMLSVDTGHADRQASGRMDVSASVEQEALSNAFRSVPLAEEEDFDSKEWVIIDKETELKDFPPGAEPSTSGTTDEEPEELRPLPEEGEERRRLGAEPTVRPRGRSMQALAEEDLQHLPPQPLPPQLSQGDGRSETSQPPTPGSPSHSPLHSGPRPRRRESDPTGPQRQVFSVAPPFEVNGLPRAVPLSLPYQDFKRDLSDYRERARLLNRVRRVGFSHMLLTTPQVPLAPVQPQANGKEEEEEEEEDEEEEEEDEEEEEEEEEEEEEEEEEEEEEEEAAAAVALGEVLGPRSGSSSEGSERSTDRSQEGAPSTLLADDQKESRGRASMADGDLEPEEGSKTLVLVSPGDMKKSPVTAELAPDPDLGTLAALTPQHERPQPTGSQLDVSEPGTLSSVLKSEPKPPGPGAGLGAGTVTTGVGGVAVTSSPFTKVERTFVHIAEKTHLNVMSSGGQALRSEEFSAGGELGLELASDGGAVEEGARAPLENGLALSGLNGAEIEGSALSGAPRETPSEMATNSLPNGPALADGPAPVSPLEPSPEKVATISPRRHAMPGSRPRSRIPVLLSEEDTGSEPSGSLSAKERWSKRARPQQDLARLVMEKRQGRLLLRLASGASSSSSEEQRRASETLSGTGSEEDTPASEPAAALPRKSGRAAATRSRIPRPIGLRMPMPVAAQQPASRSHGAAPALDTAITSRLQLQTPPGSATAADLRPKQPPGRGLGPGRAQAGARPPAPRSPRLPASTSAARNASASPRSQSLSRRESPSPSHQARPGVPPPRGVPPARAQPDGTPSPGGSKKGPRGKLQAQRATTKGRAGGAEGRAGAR

[4] = target: T1, Mitogen-activated protein kinase kinase kinase 5 (Homo sapiens) (UniProt Q99683); assay: Inhibition of human recombinant MAP3K5 at 500 nM related to control ULK1
T1 sequence (whole entry): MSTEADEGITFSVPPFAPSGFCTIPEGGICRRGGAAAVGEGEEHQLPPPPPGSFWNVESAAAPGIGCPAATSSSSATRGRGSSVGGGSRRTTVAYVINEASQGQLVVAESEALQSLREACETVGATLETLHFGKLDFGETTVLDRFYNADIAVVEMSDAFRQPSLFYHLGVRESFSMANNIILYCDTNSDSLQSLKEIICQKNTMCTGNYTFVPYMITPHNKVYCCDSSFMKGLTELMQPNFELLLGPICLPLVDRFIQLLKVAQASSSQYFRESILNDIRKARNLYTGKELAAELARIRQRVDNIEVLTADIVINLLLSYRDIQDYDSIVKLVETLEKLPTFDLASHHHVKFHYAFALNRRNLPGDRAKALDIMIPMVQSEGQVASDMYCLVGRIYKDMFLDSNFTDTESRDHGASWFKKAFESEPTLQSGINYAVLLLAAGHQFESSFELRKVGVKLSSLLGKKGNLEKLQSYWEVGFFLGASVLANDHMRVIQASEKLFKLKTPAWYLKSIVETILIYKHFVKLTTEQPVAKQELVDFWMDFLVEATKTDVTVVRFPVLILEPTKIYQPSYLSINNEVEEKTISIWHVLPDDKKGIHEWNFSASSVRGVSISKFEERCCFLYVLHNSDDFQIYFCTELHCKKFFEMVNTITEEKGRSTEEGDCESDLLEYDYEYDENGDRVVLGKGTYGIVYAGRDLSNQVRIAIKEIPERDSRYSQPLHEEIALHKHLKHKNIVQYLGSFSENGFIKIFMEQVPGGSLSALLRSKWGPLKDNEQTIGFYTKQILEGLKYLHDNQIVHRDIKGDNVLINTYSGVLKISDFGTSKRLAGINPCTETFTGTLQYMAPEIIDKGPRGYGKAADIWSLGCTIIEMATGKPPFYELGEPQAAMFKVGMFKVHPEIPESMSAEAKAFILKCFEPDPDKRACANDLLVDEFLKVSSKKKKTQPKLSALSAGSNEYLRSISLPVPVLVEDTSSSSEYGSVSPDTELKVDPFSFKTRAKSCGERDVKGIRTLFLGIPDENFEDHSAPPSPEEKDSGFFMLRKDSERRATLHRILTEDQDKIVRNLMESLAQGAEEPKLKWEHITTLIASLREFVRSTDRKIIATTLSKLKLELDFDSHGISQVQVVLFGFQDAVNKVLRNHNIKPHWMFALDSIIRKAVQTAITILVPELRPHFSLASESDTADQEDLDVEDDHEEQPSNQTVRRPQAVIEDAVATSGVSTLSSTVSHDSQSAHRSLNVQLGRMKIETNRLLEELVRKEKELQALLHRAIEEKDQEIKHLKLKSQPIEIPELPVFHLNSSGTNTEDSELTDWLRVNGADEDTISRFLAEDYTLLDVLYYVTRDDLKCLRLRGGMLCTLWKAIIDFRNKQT

[5] = target: T2, Interleukin-1 receptor-associated kinase 4 (Homo sapiens) (UniProt Q9NWZ3); assay: Inhibition of human recombinant IRAK4 at 15 nM in presence of ATP by radiometric assay relative to control
T2 sequence (whole entry): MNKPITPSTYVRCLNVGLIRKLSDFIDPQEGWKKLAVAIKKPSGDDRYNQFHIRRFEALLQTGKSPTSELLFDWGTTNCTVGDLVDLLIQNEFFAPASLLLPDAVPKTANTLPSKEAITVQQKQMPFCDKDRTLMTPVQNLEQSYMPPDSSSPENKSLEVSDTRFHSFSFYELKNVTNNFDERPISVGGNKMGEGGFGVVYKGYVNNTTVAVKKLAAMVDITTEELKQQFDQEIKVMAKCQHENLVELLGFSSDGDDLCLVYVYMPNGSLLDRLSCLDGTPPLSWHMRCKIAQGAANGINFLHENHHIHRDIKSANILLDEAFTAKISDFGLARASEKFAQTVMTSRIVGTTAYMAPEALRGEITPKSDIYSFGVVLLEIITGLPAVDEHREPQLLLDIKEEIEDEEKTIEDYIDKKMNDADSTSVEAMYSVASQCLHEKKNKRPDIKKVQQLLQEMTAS

[6] = target: Protein kinase C beta type (Homo sapiens) (UniProt P05771); assay: Inhibition of human recombinant PKCb at 15 nM in presence of ATP by radiometric assay relative to control
[7] = target: Ephrin type-A receptor 5 (Homo sapiens) (UniProt P54756); assay: Inhibition of human recombinant EphA5 at 40 nM related to control ULK1
Ephrin type-A receptor 5 (Homo sapiens), sequence (P54756 whole entry): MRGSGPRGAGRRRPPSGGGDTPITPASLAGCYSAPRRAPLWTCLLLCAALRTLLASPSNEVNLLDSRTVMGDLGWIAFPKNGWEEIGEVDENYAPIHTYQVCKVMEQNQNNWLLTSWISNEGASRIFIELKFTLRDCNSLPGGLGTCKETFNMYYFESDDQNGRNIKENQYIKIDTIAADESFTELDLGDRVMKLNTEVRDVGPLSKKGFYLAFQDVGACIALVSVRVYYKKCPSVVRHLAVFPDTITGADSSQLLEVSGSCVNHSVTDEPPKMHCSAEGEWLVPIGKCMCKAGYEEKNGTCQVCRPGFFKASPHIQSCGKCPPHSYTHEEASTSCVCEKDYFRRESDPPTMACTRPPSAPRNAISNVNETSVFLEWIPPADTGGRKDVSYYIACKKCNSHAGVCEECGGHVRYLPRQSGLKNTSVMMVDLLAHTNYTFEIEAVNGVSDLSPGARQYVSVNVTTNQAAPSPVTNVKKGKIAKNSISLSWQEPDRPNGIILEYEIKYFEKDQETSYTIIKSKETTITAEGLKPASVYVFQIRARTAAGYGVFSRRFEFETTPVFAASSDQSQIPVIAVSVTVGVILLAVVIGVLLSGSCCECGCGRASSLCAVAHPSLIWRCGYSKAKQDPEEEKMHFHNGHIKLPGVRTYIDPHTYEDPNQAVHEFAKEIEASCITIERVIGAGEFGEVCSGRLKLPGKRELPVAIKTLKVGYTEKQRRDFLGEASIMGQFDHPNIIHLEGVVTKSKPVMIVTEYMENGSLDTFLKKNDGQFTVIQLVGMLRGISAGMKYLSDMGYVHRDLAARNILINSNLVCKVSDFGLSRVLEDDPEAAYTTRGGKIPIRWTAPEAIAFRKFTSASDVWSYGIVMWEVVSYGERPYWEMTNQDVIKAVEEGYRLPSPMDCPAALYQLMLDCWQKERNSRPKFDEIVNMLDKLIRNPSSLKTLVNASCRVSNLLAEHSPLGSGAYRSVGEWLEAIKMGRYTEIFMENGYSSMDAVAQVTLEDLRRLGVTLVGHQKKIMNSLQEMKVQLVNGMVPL

[8] = target: T3, Serine/threonine-protein kinase ULK3 (Homo sapiens) (UniProt Q6PHR2); assay: Inhibition of human recombinant ULK3 at 40 nM in presence of ATP by radiometric assay relative to control
T3 sequence (whole entry): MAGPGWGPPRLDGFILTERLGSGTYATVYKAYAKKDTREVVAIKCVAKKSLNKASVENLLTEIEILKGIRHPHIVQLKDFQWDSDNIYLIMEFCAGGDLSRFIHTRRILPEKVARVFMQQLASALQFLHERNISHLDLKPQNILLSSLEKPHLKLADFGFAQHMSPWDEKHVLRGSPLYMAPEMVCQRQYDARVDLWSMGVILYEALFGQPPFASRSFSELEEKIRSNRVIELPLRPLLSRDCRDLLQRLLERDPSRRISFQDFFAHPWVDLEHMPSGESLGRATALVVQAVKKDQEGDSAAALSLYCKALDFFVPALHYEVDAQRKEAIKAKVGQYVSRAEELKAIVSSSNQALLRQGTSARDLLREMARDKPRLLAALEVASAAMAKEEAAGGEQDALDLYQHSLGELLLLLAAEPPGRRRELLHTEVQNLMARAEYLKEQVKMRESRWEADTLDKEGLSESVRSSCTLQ

[9] = target: Ephrin type-A receptor 4 (Homo sapiens) (UniProt P54764); assay: Inhibition of human recombinant EphA4 at 40 nM related to control ULK1
[10] = target: Serine/threonine-protein kinase pim-1 (Homo sapiens) (UniProt P11309); assay: Inhibition of human recombinant PIM1 at 40 nM in presence of ATP by radiometric assay relative to control
Serine/threonine-protein kinase pim-1 (Homo sapiens), sequence (P11309 whole entry, looked up): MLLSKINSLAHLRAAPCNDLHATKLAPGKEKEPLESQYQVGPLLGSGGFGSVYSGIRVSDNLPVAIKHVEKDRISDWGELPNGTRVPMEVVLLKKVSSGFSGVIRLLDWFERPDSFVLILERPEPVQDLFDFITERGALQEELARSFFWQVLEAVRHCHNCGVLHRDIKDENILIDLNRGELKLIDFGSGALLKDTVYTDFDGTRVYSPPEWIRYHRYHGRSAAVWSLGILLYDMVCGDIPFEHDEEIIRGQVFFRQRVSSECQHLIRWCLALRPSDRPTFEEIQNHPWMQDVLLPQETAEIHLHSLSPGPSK

[11] = target: [Pyruvate dehydrogenase (acetyl-transferring)] kinase isozyme 4, mitochondrial (Homo sapiens) (UniProt Q16654); assay: Inhibition of human recombinant PDHK4 at 40 nM related to control ULK1
[Pyruvate dehydrogenase (acetyl-transferring)] kinase isozyme 4, mitochondrial (Homo sapiens), sequence (Q16654 whole entry, looked up): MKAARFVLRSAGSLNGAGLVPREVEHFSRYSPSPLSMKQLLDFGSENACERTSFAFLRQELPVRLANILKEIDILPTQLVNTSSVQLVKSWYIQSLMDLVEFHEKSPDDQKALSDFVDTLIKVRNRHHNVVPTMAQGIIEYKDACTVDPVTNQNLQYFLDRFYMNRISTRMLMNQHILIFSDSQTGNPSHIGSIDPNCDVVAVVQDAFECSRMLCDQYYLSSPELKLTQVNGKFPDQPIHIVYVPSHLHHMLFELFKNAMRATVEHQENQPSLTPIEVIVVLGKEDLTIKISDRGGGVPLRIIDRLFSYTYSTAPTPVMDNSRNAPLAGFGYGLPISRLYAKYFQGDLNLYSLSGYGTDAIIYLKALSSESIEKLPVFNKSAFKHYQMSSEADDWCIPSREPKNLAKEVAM

[12] = target: T2, Interleukin-1 receptor-associated kinase 4 (Homo sapiens); assay: Inhibition of human recombinant IRAK4 at 40 nM related to control ULK1

Ephrin type-A receptor 4 (Homo sapiens), sequence (P54764 whole entry): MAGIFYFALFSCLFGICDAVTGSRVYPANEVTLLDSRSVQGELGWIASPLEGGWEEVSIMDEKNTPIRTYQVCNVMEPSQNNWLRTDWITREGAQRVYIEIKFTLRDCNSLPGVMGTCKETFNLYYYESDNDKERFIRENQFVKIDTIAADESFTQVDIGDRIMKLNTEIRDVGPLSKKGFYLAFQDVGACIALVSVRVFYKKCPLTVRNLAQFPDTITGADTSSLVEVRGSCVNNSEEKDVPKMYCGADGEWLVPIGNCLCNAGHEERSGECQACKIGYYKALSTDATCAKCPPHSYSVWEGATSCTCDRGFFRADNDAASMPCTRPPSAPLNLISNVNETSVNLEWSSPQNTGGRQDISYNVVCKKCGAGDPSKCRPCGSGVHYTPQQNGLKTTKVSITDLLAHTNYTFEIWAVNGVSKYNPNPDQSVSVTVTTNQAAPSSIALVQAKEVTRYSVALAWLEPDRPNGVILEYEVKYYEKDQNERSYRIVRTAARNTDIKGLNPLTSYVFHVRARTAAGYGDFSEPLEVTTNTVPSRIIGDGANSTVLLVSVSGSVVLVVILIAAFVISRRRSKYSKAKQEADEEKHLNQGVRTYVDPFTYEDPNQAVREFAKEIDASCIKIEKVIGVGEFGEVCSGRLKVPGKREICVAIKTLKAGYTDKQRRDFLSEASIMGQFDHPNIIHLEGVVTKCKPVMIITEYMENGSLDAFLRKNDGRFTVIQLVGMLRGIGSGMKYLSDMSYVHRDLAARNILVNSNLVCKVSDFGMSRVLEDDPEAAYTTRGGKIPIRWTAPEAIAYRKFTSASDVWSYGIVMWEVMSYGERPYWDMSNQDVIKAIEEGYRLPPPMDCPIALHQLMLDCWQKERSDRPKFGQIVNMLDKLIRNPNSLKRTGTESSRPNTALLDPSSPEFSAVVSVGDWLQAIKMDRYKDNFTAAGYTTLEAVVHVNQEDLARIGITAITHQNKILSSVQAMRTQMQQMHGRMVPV

fold change (FC) [1]: 0.2
inhibition [2]: 20%
inhibition [3]: 1%
fold change (FC) [4]: 0
Structure (SMILES): CNC(=O)c1ccccc1Oc1nc(Nc2cc(OC)c(OC)c(OC)c2)ncc1Br

inhibition [5]: 0%
inhibition [6]: 0%
Structure (SMILES): CC(C)[C@H](NC(=O)c1cc(-c2cnn3cc(-c4ccc(OCCN5CCCCC5)cc4)cnc23)cs1)C(F)(F)F

fold change (FC) [7]: 0
inhibition [8]: 5%
fold change (FC) [9]: 0
inhibition [10]: 5%
fold change (FC) [11]: 0
fold change (FC) [12]: 0
Structure (SMILES): O=C(N[C@@H](C1CC1)C(F)(F)F)c1cc(-c2cnn3cc(-c4ccc(F)cc4)cnc23)cs1
